# Results published in a melting point compilation (Tetko et al.).
row,Structure (SMILES),melting point
1,COc1ccc(NC(=O)c2ccc(C(=O)O)s2)cc1,247 to 249 °C
2,COCCOc1ccc(C#N)cc1,44 to 46 °C
3,Cc1cccc(-n2nnnc2S)c1C,115 to 117 °C
4,O=C1Cc2cc(Br)c(Cl)cc2N1,219 to 221 °C
5,COc1cc(C(=O)Cc2nc3ccccc3n2C(F)F)cc(OC)c1OC,112 to 114 °C
6,CN(c1ccccc1)S(=O)(=O)c1ccccc1C(=O)O,136 to 138 °C
7,Cc1cc(C)c2cc(C(=O)O)[nH]c2c1,168 to 170 °C
8,NC(=O)c1cc(Cl)nnc1Cl,176 to 178 °C
9,Nc1ccc2c(ccn2CC(=O)N2CCOCC2)c1,209 to 211 °C
10,Cc1ccccc1C1(C)NC(=O)NC1=O (centres undefined),169 to 171 °C
11,COc1ccc(CN2C(=O)NC(=O)C2=O)cc1,168 to 170 °C
12,CCCCc1ccc(NS(=O)(=O)c2ccc(N)cc2OC)cc1,170 to 172 °C
13,Nc1nnc(CCc2ccccc2)c(=O)n1N,243 to 245 °C
14,N#Cc1ccc(-c2nc3ccccc3[nH]2)cc1,326 to 328 °C
15,ClCc1nc(-c2ccccc2Cl)no1,37 to 39 °C
16,CS(=O)(=O)Cc1ccc(Cl)cc1S(=O)(=O)Cl,103 to 105 °C
17,CNc1cc(-c2ccc(OC)cc2)[nH]n1,122 to 124 °C
18,CCNc1ncc(C(=O)OC)s1,136 to 138 °C
19,CC(=O)c1cc(C#N)c(S)nc1C,127 to 129 °C
20,CN(c1ccc(O)cc1)S(=O)(=O)c1ccc(F)cc1,152 to 154 °C
21,O=c1[nH]c(=O)c2cc(S(=O)(=O)Cl)cnc2[nH]1,311 to 313 °C
22,Fc1ccc(-n2c(S)nc3ccccc32)c(F)c1,191 to 193 °C
23,Clc1nc(Br)n[nH]1,178 to 180 °C

row,Structure (SMILES),melting point
1,Cc1cc(C=O)c(C)n1-c1cccc([N+](=O)[O-])c1,149 to 151 °C
2,Clc1nc(-c2cccnc2)nc2ccccc12,180 to 182 °C
3,CCS(=O)(=O)c1ccc(C(=O)O)c(N)c1,184 to 186 °C
4,CC(C)Cn1c(S)nc2scc(-c3cccs3)c2c1=O,236 to 238 °C
5,O=C(Nc1nnc(-c2ccccn2)s1)OCC(F)(F)F,246 to 248 °C
6,CCCNC(=O)NC(=O)CCl,119 to 121 °C
7,O=S(=O)(Cl)Cc1ccc2ccccc2c1,97 to 99 °C
8,CC(C)(C)OC(=O)NC1CCN(CC(N)=S)CC1,169 to 171 °C
9,Cc1cc(N)n(-c2ccccn2)n1,102 to 104 °C
10,COc1cccc(-n2c(CC(=O)NN)csc2=NCc2ccco2)c1,151 to 153 °C
11,Cc1ncsc1-c1nc(CN)no1,159 to 161 °C
12,O=C(O)Cc1ccon1,84 to 86 °C
13,CCCc1cc(=O)c2cc(Oc3ccccc3)ccc2[nH]1,207 to 209 °C
14,NS(=O)(=O)N1CCNCC1,164 to 166 °C
15,N#CCC(=O)Cc1ccc(Cl)cc1,85 to 87 °C
16,Cc1ccc(S(=O)(=O)Cl)cc1C,36 to 38 °C
17,O=C1c2ccccc2S(=O)(=O)N1CCBr,94 to 96 °C
18,O=C(O)CSc1nc2cc(-c3ccccc3)sc2c(=O)n1Cc1ccccc1,320 to 322 °C
19,CC1CCCCC1N1C(=O)C=CC1=O (centres undefined),40 to 42 °C
20,CN(C)c1nc(CC#N)nc(=N)[nH]1,139 to 141 °C
21,OCc1cccc2cn[nH]c12,201 to 203 °C
22,CCNc1ccc(C#N)cn1,88 to 90 °C
23,O=C(O)C=C1CCC1,89 to 91 °C

row,Structure (SMILES),melting point
1,CCOC(=O)c1cc(-c2ccccc2)ccc1N,59 to 61 °C
2,COc1cc(/C=C/C(=O)O)ccc1OCc1c(C)noc1C,110 to 112 °C
3,Oc1ccc(Sc2ccncc2)cc1,239 to 241 °C
4,Cc1ccc2c(CC#N)c[nH]c2c1,115 to 117 °C
5,CC(Cl)C(=O)NCC1CCCCC1 (centres undefined),83 to 85 °C
6,O=C(O)CCN1CCSC1=O,91 to 93 °C
7,Cc1nnc(S)n1Cc1ccccc1,164 to 166 °C
8,COC(=O)CCCc1csc(N)n1,69 to 71 °C
9,O=C(CCl)c1ccc2c(c1)-c1cc(C(=O)CCl)ccc1C2,200 to 202 °C
10,COC(=O)c1cccc(-c2nc(C)cs2)c1,52 to 54 °C
11,CC(C)(C)CNc1ccc(C(N)=O)c(Cl)c1,138 to 140 °C
12,CCOC(=O)c1oc2c(c1C)C(=O)CCC2,104 to 106 °C
13,N#CCOc1ccc(CCl)cc1,63 to 65 °C
14,NCC(O)COc1cccc(Cl)c1Cl (centres undefined),110 to 112 °C
15,CCOC(=O)c1c(C)n(C2CCCCC2)c2ccc(O)cc12,247 to 249 °C
16,CC(C)Oc1ncc(C(=O)O)cc1Cl,171 to 173 °C
17,CN1CCN(CCNCc2ccc(Br)cc2F)CC1,45 to 47 °C
18,COc1ccc2[nH]c3c(c2c1)C(=O)CCC3,269 to 271 °C
19,Cc1ccc(C#N)nc1Br,130 to 132 °C
20,NC(=O)NCCCCC(=O)O,178 to 180 °C
21,CCCC(=O)Nc1ccc(CN)cc1,85 to 87 °C
22,Oc1ccc2ccc(C(F)(F)F)nc2c1,255 to 257 °C
23,FC(F)Oc1ccc(CNC23CC4CC(CC(C4)C2)C3)cc1,283 to 285 °C

# Other lines, results leading:
row,melting point,Structure (SMILES)
1,25 to 27 °C,N#CC1(N)CCCCC1
2,119 to 121 °C,NNC(=O)CC1CCCCC1
3,135 to 137 °C,NNC(=O)c1ccc(Cl)cc1F
4,196 to 198 °C,NC(=O)c1cccc(OCCC(=O)O)c1
5,161 to 163 °C,CC(=O)Nc1cc(S(=O)(=O)Cl)ccc1F
6,135 to 137 °C,O=C(O)C1(c2cccc(F)c2)CCCCC1
7,220 to 222 °C,CN1C(=O)N(CC(=O)O)C(=O)C12CCCCC2
8,177 to 179 °C,CNC(=O)c1ccc(N)cc1
9,139 to 141 °C,Nc1cc(N2CCCS2(=O)=O)ccc1Cl
10,199 to 201 °C,CN(C)c1ccc(C(=O)O)c(F)c1
11,39 to 41 °C,O=C1CCCOc2cc(Br)ccc21
12,259 to 261 °C,CC(Nc1nc2ccccc2s1)C(=O)O (centres undefined)
13,147 to 149 °C,O=C(O)C1CCN(c2nc3ccccc3o2)CC1
14,251 to 253 °C,NC(C(=O)O)c1ccc2ccccc2c1 (centres undefined)
15,112 to 114 °C,Nc1cnc(-c2cccc(F)c2)nc1
16,219 to 221 °C,CN1CCCC[C@@H]1C(=O)O
17,285 to 287 °C,O=C(O)c1ccc(-n2cncn2)c(F)c1
18,267 to 269 °C,O=C(O)c1ccc2c(c1)C(=O)NC2=O

row,melting point,Structure (SMILES)
1,260 to 262 °C,O=C(O)c1cccc(N2C(=O)CSC2=S)c1
2,179 to 181 °C,O=C(O)c1cc2c(s1)CCCC2
3,65 to 67 °C,O=C(Cc1ccc(F)cc1)N1CCNCC1
4,67 to 69 °C,OC1CCSc2ccccc21 (centres undefined)
5,195 to 197 °C,O=C(O)/C=C/c1cccc(-c2ccccc2)c1
6,134 to 136 °C,CN(C)C(=O)c1cccc(C(=O)O)c1
7,137 to 139 °C,CN1C(=O)C(=O)c2ccc(F)cc21
8,284 to 286 °C,NC(=O)Nc1cccc2ccccc12
9,263 to 265 °C,O=C(O)c1ccc(NC(=O)c2ccccn2)cc1
10,143 to 147 °C,Cc1ccc(C(=O)O)c(Br)c1
11,109 to 111 °C,CCc1ccnc(C(=O)O)c1
12,179 to 181 °C,COC(=O)c1c(S)nc2ccccc2c1O
13,194 to 196 °C,NC(=O)NC(CC(=O)O)c1ccccc1 (centres undefined)
14,158 to 160 °C,O=C(O)C1(c2cccc(Br)c2)CCCC1
15,74 to 76 °C,CCSc1ccc(CC(=O)O)cc1
16,137 to 139 °C,O=C(O)C1(c2ccc(F)cc2)CCCCC1
17,64 to 66 °C,O=C(O)CC=Cc1cccc(F)c1
